Entries after “also recorded” stand apart in the source; their conditions may differ. Read-outs that look alike come from different tables or passages of the source. Each block holds one molecule with its values, some of them ahead of it.
Key:
[1] = test system: mitochondrial membrane potential Δψ; assay: TMRE live-cell assay in 293T cells; settings: for impact on mitochondrial membrane potential Δψ (TMRE signal): overnight (18 hours), different compound concentrations
Protocol: (§2) The mitochondrial inner membrane potential Δψ was measured with a cellular TMRE-assay, in which a reduction of Δψ results in a reduced TMRE signal (see insert in A). […] A: Vehicle only. […] D: compound VII. E: compound IV. F: compound V.
(§3) It is well established in the art that CCCP can lower the mitochondrial membrane potential Δψ. […] 293T cells were cultured overnight with different compound concentrations after which TMRE fluorescence was measured with a fluorescence plate-reader (FIG. 10).

[2] = molecular target: T1, OMA1 protease (OPA1 cleavage) (Homo sapiens, UniProt Q96E52); assay: OPA1 cleavage / OMA1 activation in 293T cells by OPA1 Western blotting; type: cell-based; settings: for critical CCCP concentration (threshold-level) for L-OPA1 cleavage after preincubation with compound: 30 μM compound for 60 minutes; for OPA1 cleavage by compound alone, 100 μM: 100 μM (up to 100 μM for VI); for OPA1 cleavage with compound plus 1 μM CCCP: 60 minutes compound (30 μM MMP2/9 inhibitor IV, 300 μM temozolomide, 100 μM amoxapine), then 1 μM CCCP for 30 minutes
T1 construct: endogenous in cells; host or cells: 293T cells
T1 sequence (Q96E52 144-524): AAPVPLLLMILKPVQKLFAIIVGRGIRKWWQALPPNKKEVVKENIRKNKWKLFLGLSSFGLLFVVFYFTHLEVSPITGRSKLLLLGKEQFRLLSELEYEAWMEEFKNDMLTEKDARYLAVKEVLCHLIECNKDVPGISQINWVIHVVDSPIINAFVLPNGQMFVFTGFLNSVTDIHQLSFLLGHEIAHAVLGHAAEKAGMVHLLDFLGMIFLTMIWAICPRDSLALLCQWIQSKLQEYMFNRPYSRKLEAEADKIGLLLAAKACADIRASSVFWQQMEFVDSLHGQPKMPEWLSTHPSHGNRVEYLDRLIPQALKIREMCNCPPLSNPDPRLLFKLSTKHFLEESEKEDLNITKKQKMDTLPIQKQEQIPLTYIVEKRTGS
Protocol: FIG. 6. A: 293T cells were treated with 0 μM, 1 μM, 2 μM, 3 μM, 4 μM, or 5 μM CCCP for 30 minutes after which OPA1 was analyzed by Western blotting. […] E: OPA1 cleavage in Neuro2A cells treated with 30 μM of the indicated agents for 90 minutes (60 min preincubation plus 30 min of CCCP).
FIG. 7. Compounds of present invention can lower CCCP-levels for OMA1 activation gauged by OPA1 cleavage in Western blots. A-C: 293T cells were treated with the denoted concentrations of compound VII, IV and V for 60 minutes before CCCP was added for an additional 30 minutes. D-E: 293T cells were treated with the denoted concentrations of compound VII, IV and V for 6 hours before CCCP was added for an additional 30 minutes.
FIG. 11. A: A likely binding pose of a compound of present invention illustrates aspects of the drug-target interaction. B: 293T cells were treated with the denoted concentrations of compound for 90 minutes before cells were harvested and analyzed by OPA1 Western blotting. C: 293T cells were treated with the denoted concentrations of compound VI for 60 minutes and another 30 minutes with 1 μM CCCP before cells were harvested and analyzed by OPA1 Western blotting.
(§1) A nonlimiting example of a method of testing compounds for their efficacy to induce OPA1-cleavage and/or OMA1 activation is provided in FIG. 1, for which human 293T cells or mouse Neuro2A cells were treated with different agents and subsequently tested for OPA1-hydrolysis by Western blotting. […] OPA1 cleavage in these experiments is OMA1 dependent, because knock-down of the protease preserved L-OPA1 (FIG. 1B & 1C).
A nonlimiting example illustrates specific features of certain compounds disclosed herein and teaches how potency of such compounds can be further improved. To this end, compound were analyzed for their potential to lower threshold-levels for OPA1 cleavage and/or OMA1 activation using the methods described in Example 3. In one example, L-OPA1 was cleaved in untreated 293T cells at concentrations ≥5 μM CCCP (FIG. 6A, top panel). […] Preincubation with 30 μM MMP2 inhibitor II (CAS #869577-51-5) lowered the threshold-level even further to about 1 μM CCCP (FIG. 6C, bottom panel). The skilled artisan can recognize how (and the not-so-skilled artisan certainly appreciates that) substitutions and modifications of the thiirane-opposed end of the molecule increased potency.

[3] = test system: mitochondrial membrane potential Δψ
Protocol: as §2, §3

[4] = molecular target: T2, OMA1 protease (OPA1 cleavage) (Mus musculus, UniProt Q9D8H7); assay: OPA1 cleavage in Neuro2A cells by OPA1 Western blotting; type: cell-based; settings: 100 μM sorafenib; for OPA1 cleavage after 30 minutes: 5 μM CCCP, 1 μM valinomycin; for OPA1 cleavage after 3 hours: 100 μM trichostatin A
T2 construct: endogenous in cells; host or cells: Neuro2A cells
T2 sequence (Q9D8H7 140-521): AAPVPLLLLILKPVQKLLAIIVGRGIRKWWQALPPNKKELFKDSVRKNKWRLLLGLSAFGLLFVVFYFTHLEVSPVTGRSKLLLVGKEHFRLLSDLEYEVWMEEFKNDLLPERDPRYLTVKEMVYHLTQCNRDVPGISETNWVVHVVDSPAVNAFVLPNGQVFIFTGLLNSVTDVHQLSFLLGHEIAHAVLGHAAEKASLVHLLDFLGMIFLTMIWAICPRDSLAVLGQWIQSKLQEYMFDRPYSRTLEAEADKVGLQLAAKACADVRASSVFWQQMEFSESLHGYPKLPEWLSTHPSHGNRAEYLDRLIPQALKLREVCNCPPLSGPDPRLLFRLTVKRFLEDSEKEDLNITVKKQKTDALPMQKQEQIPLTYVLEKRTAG
From the text: FIG. 1. A: The YME1L1 protease regulates the OPA1 ratios under physiological conditions (a). The OMA1 protease converts all OPA1 isoforms to S-OPA1 under conditions broadly defined as stress conditions (b). […] OMA1 knock-down could prevent OPA1 hydrolyses in these experiments. C: Quantification of OMA1 protein levels in Western blots upon OMA1 knock-down (mean±S.D.; p≤0.05; n=3). D: Different chemicals and combinations of chemicals altered the OPA1 ratios in 293T cells. E: Neuro2A cells were treated with the indicated agents for 30 minutes or 3 hours, respectively.
as §1
Another example is provided in FIG. 1E, for which Neuro2A cells were treated with different reagents for 30 minutes or 3 hours prior to the assessment of OPA1 by Western blotting. Some compounds acted faster while others were slower in altering the OPA1 ratios. […] Trichostatin A had no effect even after 3 hours of treatment. […] In certain embodiments, a pharmaceutical composition comprising an effective amount of sorafenib or a derivate, a prodrug or a pharmaceutical acceptable salt thereof and an effective amount of temozolomide or a derivate, a prodrug or a pharmaceutical acceptable salt thereof is administered to a subject with cancer.

OMA1 = molecular target: T3, OMA1 (Homo sapiens, UniProt Q96E52); assay: Luciferase-based cellular reporter of enzymatic OMA1 activity in 293T cells; type: cell-based; settings: 293T reporter cells; for OMA1 activation without stress-stimulus at 40 μM: overnight, no CCCP or valinomycin
T3 construct: 293T cells stably transfected with the reporter enzyme were incubated with increasing concentrations of a compound and 30 nM valinomycin; endogenous in cells; host or cells: 293T cells stably transfected with a luciferase-based reporter enzyme (only the reporter is transfected, not OMA1)
T3 sequence (Q96E52 144-524): T1 sequence (Q96E52 144-524)
Protocol: FIG. 8. 293T cells expressing a luciferase-based cellular reporter were incubated for 1 hour with increasing concentrations of the denoted compounds in cell culture media with 30 nM valinomycin before luciferase substrate was added and light emission measured. OMA1 activity decreases the light signal of the reporter in this assay. A: Vehicle only. […] C: amoxapine. D: compound VII. E: compound IV. F: compound V.
FIG. 9. 293T cells expressing a luciferase-based cellular reporter were incubated overnight with increasing concentrations of the denoted compounds. Luciferase substrate was added the next day and light emission measured. A: Vehicle only. […] C: amoxapine. D: compound VII. E: compound IV. F: compound V.
The following non-limiting examples illustrate some aspects of the mechanism of action of the compounds disclosed herein. An alternative method of measuring enzymatic OMA1 activity makes use of a luciferase-based cellular reporter, which can be transiently or stably expressed in eukaryotic cells. In this assay, OMA1 cleaves the reporter enzyme upon activation and thereby obliterates the luciferase signal. 293T cells stably transfected with the reporter enzyme were incubated with increasing concentrations of a compound and 30 nM valinomycin. Valinomycin is known in the art to induce OPA1 cleavage (see, for example, Head B., et al. “Inducible proteolytic inactivation of OPA1 mediated by the OMA1 protease in mammalian cells.” J Cell Biol. 2009; 187(7):959-66, as well as FIG. 1E). […] This specific example illustrates how compounds of present invention can activate OMA1 under conditions that would otherwise not lead to OMA1 activation. This example also provides an independent validation of the results obtained by Western blotting.
Incubation time is a variable of OMA1 activation for certain compounds (see, for example, sorafenib in FIG. 1E). To investigate whether compounds of present disclosure would activate OMA1 in the absence of a stress-stimulus such as CCCP or valinomycin, reporter cells were incubated with increasing compound concentrations overnight (FIG. 9). […]

[5] = 293T cells, then CCCP for another 30 minutes
[6] = 293T cells, 90 minutes, absence of CCCP
[7] = cells treated 60 minutes with compound, then CCCP for another 30 minutes
[8] = 293T cells, pre-incubation of 6 hours before CCCP for an additional 30 minutes

Compound: C=CCSc1ccc2c(c1)C(=O)Nc1ccccc1O2 [IV, 2-(allylthio)dibenzo[b,f][1,4]oxazepin-11(10H)-one]
impact on mitochondrial membrane potential Δψ (TMRE signal) [1]: only little impact on Δψ

Compound: O=S(=O)(CC1CS1)c1ccc(Oc2ccccc2)cc1 (stereo not drawn) [MMP2/9 inhibitor IV]
critical CCCP concentration (threshold-level) for L-OPA1 cleavage after preincubation with compound [2, 5]: about 2 μM
OPA1 cleavage by compound alone, 30 μM ([2]; 293T cells, 30 μM, 90 minutes, absence of CCCP): did not induce OPA1 cleavage
OPA1 cleavage by compound alone, 100 μM [2, 6]: no effects on L-OPA1
OPA1 cleavage with compound plus 1 μM CCCP ([2]; 293T cells): led to OPA1 cleavage
impact on mitochondrial membrane potential Δψ (TMRE signal) [3]: only little impact on Δψ

Compound: N#CC(C#N)=NNc1cccc(Cl)c1 [CCCP]
OPA1 cleavage by 1 μM CCCP alone ([2]; 293T cells, 1 μM CCCP, 30 minutes): did not induce OPA1 cleavage
L-OPA1 cleavage by 10 μM CCCP ([2]; 293T cells, 10 μM CCCP, 30 minutes): resulted in L-OPA1 cleavage
CCCP concentration at which L-OPA1 was cleaved ([2]; untreated 293T cells, CCCP 30 minutes): ≥ 5 µM
TMRE signal with 0.6 μM CCCP ([1]; 0.6 μM CCCP): significantly reduced the TMRE signal
OPA1 cleavage after 30 minutes [4]: enough to induce OPA1 cleavage

Compound: CS(=O)(=O)Nc1ccc(Oc2ccc(S(=O)(=O)CC3CO3)cc2)cc1 (stereo not drawn) [MMP2 inhibitor II]
critical CCCP concentration (threshold-level) for L-OPA1 cleavage after preincubation with compound [2, 5]: about 1 μM
effective dose (OPA1 cleavage) [2, 7]: about 30 μM

Compound: CC(C)[C@@H]1NC(=O)[C@H](C)OC(=O)[C@@H](C(C)C)NC(=O)[C@@H](C(C)C)OC(=O)[C@H](C(C)C)NC(=O)[C@H](C)OC(=O)[C@@H](C(C)C)NC(=O)[C@@H](C(C)C)OC(=O)[C@H](C(C)C)NC(=O)[C@H](C)OC(=O)[C@@H](C(C)C)NC(=O)[C@@H](C(C)C)OC1=O [valinomycin]
effect of 30 nM valinomycin alone on reporter signal (OMA1; 1 hour, 30 nM valinomycin, vehicle only): only little effects
OPA1 cleavage after 30 minutes [4]: enough to induce OPA1 cleavage

Compound: O=C1Nc2ccccc2Oc2ccc(S(=O)(=O)CC3CO3)cc21 (stereo not drawn) [Compound V]
efficacy in OPA1 cleavage in the presence of CCCP ([2]; 293T cells, 60 minutes compound, then CCCP 30 minutes): some efficacy; also recorded: overall little activity
OPA1 cleavage at the tested concentrations after extended pre-incubation [2, 8]: did result in OPA1 cleavage
potency (effective dose) after extended pre-incubation [2, 8]: about 1 μM
impact on mitochondrial membrane potential Δψ (TMRE signal) [1]: only little impact on Δψ

Compound: O=C1Nc2ccccc2Oc2ccc(S(=O)(=O)CC3CS3)cc21 (stereo not drawn) [Compound VI]
conversion of L-OPA1 isoforms at 300 nM ([2]; 293T cells, 300 nM compound, presence of 1 μM CCCP): fully convert all L-OPA1 isoforms
OPA1 cleavage by compound alone, 100 μM [2, 6]: did not induce OPA1 cleavage
effective dose (OPA1 cleavage) ([2]; 293T cells, 60 minutes compound, another 30 minutes with 1 μM CCCP): 300 nM
effective dose better than compound IV ([2]; 293T cells, with CCCP): 10 times
more potent in inducing OPA1 hydrolysis than MMP2/9 inhibitor IV or amoxapine ([2]; 293T cells, with CCCP): 100 times

Continued, in another order:

OPA1 cleavage after 3 hours [4]: no effect
Compound: CC(/C=C/C(=O)NO)=C\[C@@H](C)C(=O)c1ccc(N(C)C)cc1 [Trichostatin A, trichostatin A]

OMA1 activation without stress-stimulus at 40 μM (OMA1): OMA1 activation was noted
OPA1 cleavage at the tested concentrations after extended pre-incubation [2, 8]: did result in OPA1 cleavage
effective dose (OPA1 cleavage) [2, 7]: about 10 μM
increase of potency compared to amoxapine ([2]; from effective doses in 293T cells): about 3 fold
impact on mitochondrial membrane potential Δψ (TMRE signal) [1]: only little impact on Δψ
Compound: C=CCSc1ccc2c(c1)C(N1CCNCC1)=Nc1ccccc1O2 [VII]

OMA1 activation without stress-stimulus at 40 μM (OMA1): OMA1 activation was noted
OPA1 cleavage with compound plus 1 μM CCCP ([2]; 293T cells): OPA1 cleavage was observed
impact on mitochondrial membrane potential Δψ (TMRE signal) [1]: only little impact on Δψ
Compound: Clc1ccc2c(c1)C(N1CCNCC1)=Nc1ccccc1O2 [amoxapine]
OPA1 cleavage by compound alone, 100 μM [2, 6]: no effect on OPA1 cleavage; also recorded: no perceptible effects

OPA1 cleavage after 30 minutes [4]: only little effect
OPA1 cleavage after 3 hours [4]: L-OPA1 was completely converted
Compound: CNC(=O)c1cc(Oc2ccc(NC(=O)Nc3ccc(Cl)c(C(F)(F)F)c3)cc2)ccn1 [sorafenib]
